How the values were obtained:
B16 melanoma 4A5 cells [1] = assay: Melanin content in IBMX-stimulated cells; type: cell-based, mouse; settings: 400 μM IBMX, 2 days; for effect on melanogenesis (FIG. 4): 10 μM and 20 μM
Description: In this experiment, 3-isobutyl-1-methylxanthine (IBMX) is used as a melanogenic-stimulating agent while genistein and danazol with inhibitory effect on melanogenesis are used as positive controls. The B 16 melanoma 4A5 cells are cultured in DMEM containing 10% (v/v) fetal bovine serum (FBS) in a 5% CO2 humidified incubator at 37° C. Then seed cells in a 24-well plate with proper density. After one day, the cells are treated with 5 μM, 10 μM, and 20 μM 3′-hydroxygenistein respectively in the presence of 400 μM IBMX and cultured for 2 days. Then collect and wash the cells with PBS (Phosphate Buffered Saline) buffer twice. The cell pellets are dissolved in lysis buffer containing 20 mM trisodium phosphate (pH6.8) and 1% Triton X-100. After centrifugation at 15,000×g for 15 minutes, melanin pellets are dissolved in 1N NaOH containing 20% DMSO at 95° C. for 1 hour. Use spectrophotometer ((U-5100; Hitachi, Japan) to detect absorbance of melanin at 490 nm. The melanin content is expressed as percentage of the control group (IBMX group).

B16 melanoma 4A5 cells [2] = assay: Cell viability by MTT assay; type: cell-based, mouse; settings: 48 hours
Description: In order to confirm a non-cytotoxic concentration range of 3′-hydroxygenistein, MTT and crystal violet staining assays are used to detect cell viability of 3′-hydroxygenistein. A mouse melanoma cell line (B16 melanoma 4A5 obtained from bioresource Collection and Research Center, Food Industry Research and Development Institute) is cultured in DMEM (Dulbecco's Modified Eagle Medium) containing 10% (v/v) fetal bovine serum (FBS) in a 5% CO2 humidified incubator for 24 hours. The B16 melanoma 4A5 cells are treated with 3′-hydroxygenistein for 48 hours. Then remove the culture medium, add 1 mg/mL MTT dissolved in PBS and incubate for 2 hours. Next remove MTT solution and add DMSO. At last, use spectrophotometer ((U-5100; Hitachi, Japan) to detect absorbance of dissolved formazan crystals at 475 nm. The cell viability is expressed as percentage of control (% of control).

tyrosinase [3] = assay: Effect on tyrosinase activity (L-DOPA to dopachrome, absorbance at 475 nm); type: biochemical; settings: for effect on tyrosinase activity (FIG. 2): 10-40 μM
Description: Tyrosinase plays an important role on melanogenesis. Thus the effect of 3′-hydroxygenistein on tyrosinase is detected. First dissolve 1 μL 3′-hydroxygenistein in DMSO (dimethyl sulfoxide) and mixed with 5 μL tyrosinase in a 94 μL, 50 mM PBS (pH 6.8). Add 0.9 mL, 2.5 mM L-DOPA (dissolved in 50 mM PBS, pH 6.8) into the mixture and react at 25° C. for 10 minutes.

tyrosinase [4] = settings: cited from earlier work
melanin cells = settings: 30 μM to 60 μM; cited from earlier work

Structure (SMILES): O=c1c(-c2ccc(O)c(O)c2)coc2cc(O)cc(O)c12 [3′-hydroxygenistein]
- effect on melanogenesis (FIG. 4) (B16 melanoma 4A5 cells [1]): show inhibition of melanogenesis
- melanin content, percentage of the control group (IBMX group) (B16 melanoma 4A5 cells [1]; 20 μM): 50.5%
- inhibitory effect on melanogenesis compared with danazol (B16 melanoma 4A5 cells [1]): better than danazol
- cytotoxicity (cell survival rate, FIG. 3) (B16 melanoma 4A5 cells [2]; 40 μM): shows cytotoxicity
- cytotoxicity (cell survival rate, FIG. 3) (B16 melanoma 4A5 cells [2]; concentration between 10 μM and 20 μM): no cytotoxicity
- effect on tyrosinase activity (FIG. 2) (tyrosinase [3]): inhibits tyrosinase activity in a dose-dependent manner
- IC50 (tyrosinase [3]; L-DOPA substrate, 25° C., 10 minutes, pH 6.8, read-out: half-inhibitory concentration (IC50) in inhibiting tyrosinase): 15.9 µM
- tyrosinase inhibitory activity, times stronger than kojic acid (tyrosinase [3]; ratio of IC50 values, kojic acid as the standard): 11 times

Structure (SMILES): O=c1c(-c2ccc(O)cc2)coc2cc(O)c(O)cc12 [6-OHDe, 6,7,4′-trihrdroxyisoflavone]
- tyrosinase inhibitory activity, times stronger than glycitein (tyrosinase [4]; Taiwanese Pat. No. 1312686): 25 times
- tyrosinase inhibition activity (literature) (tyrosinase [4]): have tyrosinase inhibition activity

Structure (SMILES): O=c1c(-c2ccc(O)cc2)coc2c(O)c(O)ccc12 [8-OHDe, 7,8,4′-trihrdroxyisoflavone]
- tyrosinase inhibitory activity, times stronger than daidzein (tyrosinase [4]; Taiwanese Pat. No. 1312686): 30 times
- tyrosinase inhibition activity (literature) (tyrosinase [4]): have tyrosinase inhibition activity

Structure (SMILES): O=c1c(-c2ccc(O)cc2)coc2c(O)c(O)cc(O)c12 [8-hydroxygenistein, 5,7,8,4′-tetrahydroxyisoflavone]
- tyrosinase inhibitory activity, times stronger than genistein (tyrosinase [4]; Taiwanese Pat. No. 1312686): 90 times

Structure (SMILES): O=c1c(-c2ccc(O)cc2)coc2cc(O)ccc12 [daidzein]
- tyrosinase inhibition activity (literature) (tyrosinase [4]): doesn't have such activity

Structure (SMILES): O=c1c(-c2ccc(O)cc2)coc2cc(O)cc(O)c12 [genistein]
- effect on melanogenesis (FIG. 4) (B16 melanoma 4A5 cells [1]): no inhibitory effect on melanogenesis
- effect on melanin production (literature) (melanin cells): induce melanin cells to produce more melanin
- effect on tyrosinase activity (FIG. 2) (tyrosinase [3]): no tyrosinase inhibitory activity
